Where a name gives a salt, the structure may show the parent alone.

One assay relates to Acinetobacter baumannii ATCC17961. The assay can be described thus: Antimicrobial susceptibility testing, 90% growth inhibitory concentration (IC90) determination. It counts as cell-based. As to conditions: 90% growth inhibitory concentration, Acinetobacter baumannii ATCC17961, Iso-Sensitest broth, OD 600 nm over 16 h; read-out: ATCC17961 IC90. The procedure: The in vitro antimicrobial activity of the compounds was determined according to the following procedure:
The assay used a 10-points Iso-Sensitest broth medium to measure quantitatively the in vitro activity of the compounds against Acinetobacter baumannii ATCC 17978 and Acinetobacter baumannii ATCC17961.
Stock compounds in DMSO were serially twofold diluted (e.g. range from 50 to 0.097 μM final concentration) in 384 wells microtiter plates and inoculated with 49 μl the bacterial suspension in Iso-Sensitest medium to have a final cell concentration of ˜5×10^(5) CFU/ml in a final volume/well of 50 ul/well. Microtiter plates were incubated at 35+2° C.
Bacterial cell growth was determined with the measurement of optical density at X=600 nm each 20 minutes over a time course of 16 h. Growth inhibition was calculated during the logarithmic growth of the bacterial cells with determination of the concentration inhibiting 50% (IC50) and 90% (IC90) of the growth.
Table 1 provides the 90% growth inhibitory concentrations (IC90) in micromoles per liter of the compounds of present invention obtained against the strain Acinetobacter baumannii ATCC17978 and Acinetobacter baumannii ATCC17961.
For `CCc1cc(Nc2nccn3c(-c4ccc(OC)c(F)c4F)cnc23)ccc1C(=O)NC1CC1NC(=O)[C@@H]1C[C@@H](O)CN1` (mixture of isomers) [Example 73, (2S,4R)-N-[(cis-1SR,2RS)-2-[[4-[[3-(2,3-difluoro-4-methoxy-phenyl)imidazo[1,2-a]pyrazin-8-yI]amino]-2-ethyl-benzoyl]amino]cyclopropyl]-4-hydroxy-pyrrolidine-2-carboxamide], the IC90 – broadly, the concentration at which the effect reaches the 90% level – stood at 173 nM.

Regarding `COc1ccc(-c2cnc3c(Nc4ccc(C(=O)N[C@H]5CCN(C(=O)[C@@H]6C[C@@H](O)CN6)C5)c(C)c4)nccn23)c(F)c1F` [Example 64, 4-((3-(2,3-difluoro-4-methoxyphenyl)imidazo[1,2-a]pyrazin-8-yl)amino)-N-((S)-1-((2S,4R)-4-hydroxypyrrolidine-2-carbonyI)pyrrolidin-3-yl)-2-methylbenzamide], the concentration for an effect of 90% (IC90) turned out to be 81 nM.

With `CCc1cc(Nc2nccn3c(-c4ccc(OC)c(F)c4F)cnc23)ccc1C(=O)NC12CC(N)(C1)C2` [Example 61, N-(3-aminobicyclo[1.1.1]pentan-1-yl)-4-((3-(2,3-difluoro-4-methoxyphenyl)imidazo[1,2-a]pyrazin-8-yl)amino)-2-ethylbenzamide dihydrochloride], the IC90 amounted to 259 nM.

For `COc1ccc(-c2cnc3c(Nc4ccc(C(=O)NC5CN(C(=O)[C@@H]6C[C@@H](O)CN6)C5)c(C)c4)nccn23)c(F)c1F` [Example 65, 4-((3-(2,3-difluoro-4-methoxyphenyl)imidazo[1,2-a]pyrazin-8-yl)amino)-N-(1-((2S,4R)-4-hydroxypyrrolidine-2-carbonyl)azetidin-3-yl)-2-methylbenzamide], the IC90 stood at 47 nM.

Consider `COc1ccc(-c2cnc3c(Nc4ccc(C(=O)NC5CNC5)c(C)c4)nccn23)c(F)c1F` [Example 56, N-(azetidin-3-yl)-4-((3-(2,3-difluoro-4-methoxyphenyl)imidazo[1,2-a]pyrazin-8-yl)amino)-2-methylbenzamide], for which the IC90 is 279 nM.

Regarding `COc1ccc(-c2cnc3c(Nc4ccc(C(=O)NC5CCCNC5)c(C)c4)nccn23)c(F)c1F` (stereo not shown) [Example 51, 4-((3-(2,3-difluoro-4-methoxyphenyl)imidazo[1,2-a]pyrazin-8-yl)amino)-2-methyl-N-(piperidin-3-yl)benzamide], the IC90 was 324 nM.

Turning to `CCc1cc(Nc2nccn3c(-c4ccc(OC)c(F)c4F)cnc23)ccc1C(=O)N[C@H]1CC[C@H](NC(=O)[C@@H](N)CCCNC(=N)N)CC1` [Example 45, N-((1S,4r)-4-((S)-2-amino-5-guanidinopentanamido)cyclohexyl)-4-((3-(2,3-difluoro-4-methoxyphenyl)imidazo[1,2-a]pyrazin-8-yl)amino)-2-ethylbenzamide bis(2,2,2-trifluoroacetate)], the IC90 worked out at 559 nM.

With `CCc1cc(Nc2nccn3c(-c4ccc(OC)c(F)c4F)cnc23)ccc1C(=O)N[C@H]1CC[C@H](N)C1` (racemic) [Example 43, rac-N-((1R,3 R)-3-aminocyclopentyl)-4-((3-(2,3-difluoro-4-methoxyphenyl)imidazo[1,2-a]pyrazin-8-yl)amino)-2-ethylbenzamide], the IC90 was found to be 211 nM.

As to `COc1ccc(-c2cnc3c(Nc4ccc(C(=O)N[C@@H]5CCN(C(=O)[C@@H]6C[C@@H](O)CN6)C5)c(C)c4)nccn23)c(F)c1F` [Example 63], the 90% effect concentration (IC90) worked out at 55 nM.

`CCc1cc(Nc2nccn3c(-c4ccc(OC)c(F)c4F)cnc23)ccc1C(=O)N[C@@H]1CCC[C@@H]1N` [Example 71, N-((1R,2S)-2-aminocyclopentyl)-4-((3-(2,3-difluoro-4-methoxyphenyl)imidazo[1,2-a]pyrazin-8-yl)amino)-2-ethylbenzamide dihydrochloride]: the IC90 stood at 712 nM.

As for `CCc1cc(Nc2nccn3c(-c4ccc(OC)c(F)c4F)cnc23)ccc1C(=O)N[C@@H]1C[C@@H]1N` (racemic) [Example 74, rac-N-((1R,2S)-2-aminocyclopropyl)-4-((3-(2,3-difluoro-4-methoxyphenyl)imidazo[1,2-a]pyrazin-8-yl)amino)-2-ethylbenzamide], the IC90 came to 201 nM.

For the compound `CCc1cc(Nc2nccn3c(-c4ccc(OC)c(F)c4F)cnc23)ccc1C(=O)N[C@H]1CC[C@H](N)CC1` [Example 42, trans-N-((1r,4r)-4-aminocyclohexyl)-4-((3-(2,3-difluoro-4-methoxyphenyl)imidazo[1,2-a]pyrazin-8-yl)amino)-2-ethylbenzamide], the IC90 was 260 nM.

For `CCc1cc(Nc2nccn3c(-c4ccc(OC)c(F)c4F)cnc23)ccc1C(=O)NC1CCC1NC(=O)[C@@H]1C[C@@H](O)CN1` (mixture of isomers) [Example 69, (2S,4R)-N-(2-(4-((3-(2,3-difluoro-4-methoxyphenyl)imidazo[1,2-a]pyrazin-8-yl)amino)-2-ethylbenzamido)cyclobutyl)-4-hydroxypyrrolidine-2-carboxamide], the IC90 turned out to be 246 nM.

For `CCc1cc(Nc2nccn3c(-c4ccc(OC)c(F)c4F)cnc23)ccc1C(=O)N[C@@H]1C[C@H]1NC(=O)[C@@H]1C[C@@H](O)CN1` (mixture of isomers) [Example 68, (2S,4R)-N-[(1RS, 2RS)-2-[[4-[[3-(2,3-difluoro-4-methoxy-phenyl)imidazo[1,2-a]pyrazin-8-yl]amino]-2-ethyl-benzoyl]amino]cyclopropyl]-4-hydroxy-pyrrolidine-2-carboxamide], the IC90 turned out to be 140 nM.

Consider `COc1ccc(-c2cnc3c(Nc4ccc(C(=O)NC5CCNCC5)c(C)c4)nccn23)c(F)c1F` [Example 50, 4-((3-(2,3-difluoro-4-methoxyphenyl)imidazo[1,2-a]pyrazin-8-yl)amino)-2-methyl-N-(piperidin-4-yl)benzamide], for which the IC90 amounted to 319 nM.

As to `COc1ccc(-c2cnc3c(Nc4ccc(C(=O)N[C@H]5CC[C@H](NC(=O)[C@@H]6C[C@@H](O)CN6)CC5)c(C)c4)nccn23)c(F)c1F` [Example 62, (2S,4R)-N-((1r,4S)-4-(4-((3-(2,3-difluoro-4-methoxyphenyl)imidazo[1,2-a]pyrazin-8-yl)amino)-2-methylbenzamido)cyclohexyI)-4-hydroxypyrrolidine-2-carboxamide], the IC90 worked out at 268 nM.

With `CCc1cc(Nc2nccn3c(-c4ccc(OC)c(F)c4F)cnc23)ccc1C(=O)N[C@H]1CCC[C@H]1NC(=O)[C@@H]1C[C@@H](O)CN1` [Example 53, (2S,4R)-N-((1R, 2S)-2-(4-((3-(2,3-difluoro-4-methoxyphenyl)imidazo[1,2-a]pyrazin-8-yl)amino)-2-ethylbenzamido)cyclopentyl)-4-hydroxypyrrolidine-2-carboxamide], the IC90 is 987 nM.

For `COc1ccc(-c2cnc3c(Nc4ccc(C(=O)N[C@H]5CC[C@H](N)CC5)c(C)c4)nccn23)c(F)c1F` [Example 52, rac-N-((1r,4r)-4-aminocyclohexyl)-4-((3-(2,3-difluoro-4-methoxyphenyl)imidazo[1,2-a]pyrazin-8-yl)amino)-2-methylbenzamide], the IC90 was 243 nM.

Staying with this assay, now noted: Acinetobacter baumannii, ATCC17961, 16 h, read-out: ATCC17961 IC90.
Consider `CCc1cc(Nc2nccn3c(-c4ccc(OC)c(F)c4F)cnc23)ccc1C(=O)N[C@H]1[C@@H]2CNC[C@@H]21` [Example 72, rac-N-((1R,5 S,6s)-3-azabicyclo[3.1,0]hexan-6-yI)-4-((3-(2,3-difluoro-4-methoxyphenyl)imidazo[1,2-a]pyrazin-8-yl)amino)-2-ethylbenzamide hydrochloride], for which the 90% effect concentration (IC90) came out at 295 nM.
